Test [1] relates to ileum. Put plainly: TRANSTAT: ileal expression by qPCR in 18-week microbiota donor mice. Format: in vivo, C57BL6J mice. To be noted: 18-week STAT-donor mice vs control donors. The protocol:
(§1) Total RNA was extracted from mouse tissues using the RNeasy Mini Kit (Qiagen), according to the manufacturer's instructions. Total RNA was reverse transcribed to cDNA using the Verso™ cDNA Synthesis Kit (Thermo Scientific). To generate standards for expression analysis of each target gene, the cDNA region of interest was PCR-amplified and the PCR product was cloned into pGEM-T easy (Promega). qPCR was performed with LightCycler 480 SYBR Green I Master mix (Roche) and run in a LightCycler 480 system (Roche). Target mRNA was normalized to GAPDH mRNA as an internal control in each sample.
C57BL/6J (Jackson Labs, Bar Harbor, Me.) mice either received no antibiotics (control) or continuous STAT penicillin. Mice were weaned at 4 weeks onto normal chow (13.2% fat, 5053 PicoLab Rodent Diet 20, LabDiet, Brentwood, Mo.), then changed to a high fat diet (45% kcal from fat, D12451, Research Diets, New Brunswick, N.J.) at 6 weeks of life. At 18 weeks of age, from each group (Control, n=9; STAT, n=8), the three animals with weight at or closest to the median were selected as cecal content donors. Donor mice were humanely euthanized, and the proximal ⅓ of the cecum was aseptically removed and after a series of processing steps, either the pooled Control or STAT microbiota suspensions were placed in the stomachs of the germ-free recipients (Control, n=7 recipients; STAT, n=8) by oral gavage. Recipients were chosen randomly, and the inoculum alternated between control and STAT recipients. […] The microbiota-recipient mice were housed in autoclaved cages, under specific pathogen-free conditions, and fed an irradiated high fat diet (45% kcal from fat, D12451, Research Diets, New Brunswick, N.J.), and followed for the next 35 days until sacrifice. Fecal pellets were collected serially from the time of transfer.
Mice were fed normal chow, then switched to high fat diet at 6 weeks of age. At 18 weeks, cecal contents were collected from 3 control and 3 STAT mice, based on their median weight, pooled, and transferred to 3-4 week old germ-free Swiss Webster mice by oral gavage. Every attempt was made to maintain viability of the microbiota by protecting the microbiota from oxygen and minimizing time between microbiota collection and transfer. Microbiota recipient mice were monitored for 5 weeks, then ileal samples were collected to assess immunity by flow cytometry and qPCR. Ileal gene expression was also measured by microarray and Nanostring Immunology Panel (FIG. 13).
Expression levels were measured by qPCR and normalized by GAPDH expression.

Test [2] relates to ileum. The experiment in a line: EarlySTAT: ileal gene expression by qPCR in 4- and 8-week mice. In kind it is in vivo, C57BL/6J mice. Conditions: STAT vs control.
Excerpt: C57BL/6J (Jackson Labs, Bar Harbor, Me.) mice either received no antibiotics (control) or continuous STAT penicillin. Mice were weaned at 4 weeks onto normal chow (13.2% fat, 5053 PicoLab Rodent Diet 20, LabDiet, Brentwood, Mo.), then switched to a high fat diet (45% kcal from fat, D12451, Research Diets, New Brunswick, N.J.) at 6 weeks of life. Mice were sacrificed at 4, 8, and 18 weeks of age. The terminal[1 cm] ileum without Peyer's Patches [TI-] was collected for gene expression analysis by qPCR. The proximal 1 cm of ileum was used for histological analysis of tissue structure, and the remaining ileum was used to determine immunity phenotypes by flow cytometry.
C57BL6J mice were exposed to sub-therapeutic antibiotic treatment (STAT) with penicillin via their drinking water from birth, or no antibiotics (Control). Mice were fed a normal diet until 6 weeks of age, then they were fed high fat diet. 5 mice from each experimental group were sacrificed at 4 weeks, and 4 mice from each group were sacrificed at 8 weeks. The terminal[1 cm] ileum without Peyer's Patches [TI-] was collected for gene expression analysis by qPCR. The proximal 1 cm of ileum was used for histological analysis of tissue structure, and the remaining ileum was used to determine immunity phenotypes by flow cytometry. Ileal gene expression was also measured by microarray and the nCounter GX Mouse Immunology Kit (Nanostring Technologies, Seattle, Wash., USA).
as §1
Ileal expression of T-bet [Th1], GATA3 [Th2], Foxp3 [Treg], and RORγt [Th17] (FIG. 4A), and IFNγ [Th1], IL-4 [Th2], TGFβ1 [Treg], and IL-17 [Th17] (FIG. 4B) (4-week; Control, n=4, STAT, n=5, 8-week; Control, n=3, STAT, n=4) was quantitated by qPCR and normalized by GAPDH expression. […] These studies provide evidence that low dose antibiotic exposure can be used to change immune effector T-cell populations and the effector molecules they produce.
Ileal expression of defensin β1, Reg3γ, and Relmβ (4-week; Control n=4, STAT n=5, 8-week; Control n=3, STAT n=4) was quantitated by qPCR and normalized by GAPDH expression. […] These findings provide examples of how the STAT exposure changed intestinal expression of antimicrobial peptide genes.
Ileal expression of the IgA J-chain, polymeric Ig receptor (pIgR), both related to polymeric IgA function, and TLR2 and TLR4 was quantitated by qPCR and normalized by GAPDH expression in 4- and 8-week STAT [4-week; Control n=3, STAT n=4, 8-week; Control n=3, STAT n=4].

The mark [3] stands for this setting: 4- and 8-week, qPCR and microarray.

The structures appear in SMILES notation.

This note sets out measurements from patent publication US20160120915A1, “METHODS FOR MANIPULATING IMMUNE RESPONSES BY ALTERING MICROBIOTA” (NEW YORK UNIVERSITY, priority 2013, published 2016).

In the case of `CC1(C)S[C@@H]2[C@H](NC(=O)COc3ccccc3)C(=O)N2[C@H]1C(=O)[O-].[K+]` [STAT, penicillin VK], in the test with ileum [1], the “ileal expression of IL-17A” value is given as “significantly down-regulated”, the “ileal expression of IL-17F” value is “downward trend”, the “ileal expression of RORγt” value is “downward trend” and the “ileal expression of Reg3γ” value is “significantly down-regulated”. Besides, the “ileal expression of defensin β1” value in the test on ileum [1] is on record as “significantly down-regulated”. The “expression of all four transcription factors (T-bet, GATA3, Foxp3, RORγt)” value with ileum [2] (4- and 8-week mice) was “trended downwards”. Further, in the test with ileum [2] (setting [3]), the “ileal B cell markers (IgA J-chain, pIgR)” value is on record as “significantly down-regulated” and the “ileal TLRs (TLR2, TLR4)” value is recorded as “downward trend”. Also, in the test with ileum [2] (at 4- and 8-weeks, p<0.05), the “ileal expression of IL-17 [Th17]” value was “significantly down-regulated”, the “ileal expression of RORγt [Th17]” value was “significantly down-regulated” and the “ileal expression of T-bet [Th1]” value is reported as “significantly down-regulated”. In the test on ileum [2] (at 4-weeks, p<0.05), the “ileal expression of IFNγ [Th1]” value is “significantly down-regulated”. Besides, the “ileal Relmβ expression” value with ileum [2] (at 4 weeks, p<0.05) was “significantly lower”. Further, in the test on ileum [2] (at 8-weeks, p<0.05), the “ileal expression of GATA3 [Th2]” value was “significantly down-regulated” and the “ileal expression of TGFβ1 [Treg]” value is “significantly down-regulated”. Besides, in the test on ileum [2] (at 8 weeks, p<0.05), the “ileal expression of all three antimicrobial peptides (defensin β1, Reg3γ, Relmβ)” value is on record as “significantly lower”.
